# Test results: paper doi:10.1101/2025.05.14.653428v1 (bioRxiv, 2025)
# Where a SMILES comes first, the peptide text is derived from it.
# Tests used:
# pFAK in hepatocytes = pFAK in hepatocytes by western blotting; type: cell-based, murine; conditions: suspension without FCS 2 hours, 50μg/mL for 30 minutes
# TGF-β in hepatocytes = assay: TGF-β mRNA and protein in cultured hepatocytes; type: cell-based, murine; conditions: hepatocytes on vitronectin, 24 hours
# hepatocytes = type: cell-based, murine; conditions: 50μg/mL, 24 hours, flow cytometry
# [1] = GLQGE detection in plasma after injection; type: in vivo, mice; conditions: for time to enter the circulation / time until cleared from the bloodstream: LC-MS/MS; for Tmax: mouse
# [2] = Evaluation of toxicity in vivo; set-up: species or system mice; conditions: 10 days intraperitoneal, 1 mg/mouse/day, N=10/group
# Huh-7 hepatoma cell line = assay: TGF-β protein in Huh-7 cells; type: cell-based; conditions: cultured on vitronectin, 50μg/mL, 24 hours
Compound,pFAK in hepatocytes from β3 global knockout mice (pFAK in hepatocytes),pFAK in hepatocytes (pFAK in hepatocytes; western blotting),"total TGF-β protein in hepatocytes (TGF-β in hepatocytes; 50μg/mL, MLEC bioassay)","TGF-β mRNA expression in cultured hepatocytes compared to untreated control (TGF-β in hepatocytes; 50μg/mL, qPCR)",hepatocyte apoptosis (annexinv-propidium-iodide staining) (hepatocytes),hepatocyte proliferation (ki67 staining) (hepatocytes),time to enter the circulation ([1]; i.p. injection of 0.5 mg GLQGE),time until cleared from the bloodstream ([1]; i.p. injection of 0.5 mg GLQGE),"Tmax ([1]; ip, 0.5 mg/mouse)","Tmax ([1]; sc, 1 mg/mouse)",time to enter the circulation ([1]; s.c. injection of 1 mg GLQGE),time until cleared from the bloodstream ([1]; s.c. injection of 1 mg GLQGE),blood values of kidney function [2],blood values of liver function [2],blood values of pancreas function [2],complete blood count [2],TGF-β mRNA expression in wildtype hepatocytes after FAK inhibition (TGF-β in hepatocytes; 5μM),"TGF-β mRNA in cultured hepatocytes compared to GLOGE (TGF-β in hepatocytes; 50μg/mL, qPCR)",TGF-β protein in Huh-7 (Huh-7 hepatoma cell line)
CC(C)C[C@@H]1NC(=O)CNC(=O)[C@H](CCC(=O)O)NC(=O)CNC(=O)[C@H](CCC(N)=O)NC1=O [GLQGE] (cyclo(EGLQG)),increase,increased,suppressed,diminished,did not affect,did not affect,≤ 5 min,≤ 120 min,15 min,15 min,≤ 5 min,≤ 120 min,no significant abnormalities,no significant abnormalities,no significant abnormalities,no significant abnormalities,–,–,–
"CS(=O)(=O)c1cccc(CNc2nc(Nc3ccc4c(c3)CCC(=O)N4)ncc2C(F)(F)F)c1 [PF573228, reference compound]",–,–,–,–,–,–,–,–,–,–,–,–,–,–,–,–,rise,–,–
GLNGE (head to tail),–,–,–,–,–,–,–,–,–,–,–,–,no significant abnormalities,no significant abnormalities,no significant abnormalities,no significant abnormalities,–,diminished,reduced
GLOGE (head to tail),–,–,–,–,–,–,–,–,–,–,–,–,no significant abnormalities,no significant abnormalities,no significant abnormalities,no significant abnormalities,–,–,–
